Results as given in patent publication US7320984B2, “Remedies or preventives for urinary frequency or urinary incontinence and morphinan derivatives having nitrogen-containing heterocyclic group” (Toray Industries, Inc., priority 2002, dated 2008).

Tested on: rhythmic bladder contractions in rats
Experiment: Inhibitory effect against rhythmic bladder contractions in rats
Type: in vivo
Settings: anesthetized female SD rats, intravenous
In short: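 Urethane-anesthetized (1.0 g/kg i.p.) female SD rats; saline infused into bladder to induce rhythmic contractions, intravesical pressure monitored. Compound given i.v. at 1 ml/kg in saline, 10% or 20% aqueous DMSO, or 5% aqueous xylitol. Inhibitory time = period intravesical pressure stayed ≤50% of post-dose level (onset within 10 min); vehicles tested alone.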

Compound | Mean Inhibitory Time of Rhythmic Bladder Contractions (dose 0.1 mg/kg body weight) [min] | further results
Oc1ccc2c3c1O[C@H]1[C@H](N4CCc5ccccc54)CC[C@@]4(O)[C@@H](C2)N(CCc2ccccc2)CC[C@]314 [Compound 5, 4,5α-epoxy-6β-indolino-17-phenethyl-morphinan-3,14-diol] | 9.9 | –
CC1=C(C)C(=O)N([C@H]2CC[C@@]3(O)[C@H]4Cc5ccc(O)c6c5[C@@]3(CCN4CC3CC3)[C@H]2O6)C1=O [Compound 76, N-(17-cyclopropylmethyl-4,5α-epoxy-3,14-dihydroxy-morphinan-6α-yl)-2,3-dimethyl-maleimide] | – | Mean Inhibitory Time of Rhythmic Bladder Contractions (dose 0.01 mg/kg body weight): 16.7 min
O=C1c2cc(F)ccc2CN1[C@@H]1CC[C@@]2(O)[C@H]3Cc4ccc(O)c5c4[C@@]2(CCN3CC2CC2)[C@H]1O5 [Compound 82, 2-(17-cyclopropylmethyl-4,5α-epoxy-3,14-dihydroxy-morphinan-6β-yl)-6-fluoro-2,3-dihydro-isoindol-1-one] | – | Mean Inhibitory Time of Rhythmic Bladder Contractions (dose 0.03 mg/kg body weight): 19.9 min
C=CCN1CC[C@]23c4c5ccc(O)c4O[C@H]2[C@H](N2C(=O)c4cc(Cl)c(Cl)cc4C2=O)CC[C@@]3(O)[C@H]1C5 [Compound 59, N-(17-allyl-4,5α-epoxy-3,14-dihydroxymorphinan-6β-yl)-4,5-dichlorophthalimide] | 6.1 | –
